Assay results reported in patent EP2386565A2, “Compounds and methods to inhibit or augment an inflammatory response” (Cambridge Enterprise Ltd., priority 1999, dated 2000).
Positions of bridges follow the written chain, without caps; N, C: chain ends. Non-standard residues stand in square brackets, D forms with d. Residues, ends and D or L forms follow the SMILES beside them. No end group written: not given here.

Tests used:
[1] = tested on: chemokine-induced THP-1 migration; assay: THP-1 trans-well migration assay, several chemokines together (averages, selectivity, pan-chemokine statements); type: cell-based, human; details: for effect on chemokine-induced THP-1 migration (in words): MCP-1, MIP1α, IL-8 and SDF1α
Procedure: To determine whether an agent inhibits a chemokine-induced activity, such as macrophage recruitment, varying amounts of the agent are mixed with cells in the presence of a known chemoattractant. […] Chemokine (such as MCP-1, MIP1α, IL8 or SDF-1α), at a concentration known to cause significant migration of THP-1 cells in the trans-well migration assay, is placed in the lower compartment (Figure 1). Cells are then incubated at 37°C for a period sufficient to allow migration, e.g., 4 hours. After incubation, the cells are gently removed from the top of the filter with a pipette, 20 µl of 20 mM EDTA in simple PBS is added into each top well, and incubated for 20 minutes at 4°C. The filter is carefully flushed with media using a gentle flow, and removed. […] The media is carefully aspirated from each well, and the converted dye is solubilized by 20 µl of DMSO.
Chemotaxis was induced in a 96-well disposable chemotaxis chamber fitted with a 5 µM polycarbonate filter (PVP free, ChemoTX, Neuroprobe Inc., Cabin John). […] The framed filter was aligned with the holes in the corner of the filter frame and placed over the wells.
Peptides were dissolved in Milli Q water and then serially diluted in culture medium. In most cases, the serially diluted peptides were added to the upper compartment of the chemotaxis chamber. The chamber was incubated at 37°C in a humidified atmosphere of 5% CO2 for 4 hours.
After incubation, the cells were gently removed from the top of the filter with a pipette, 20 µl of 20 mM EDTA in PBS was added into each top well, and the mixture was incubated for 20 minutes at 4°C. The filter was then carefully flushed with media using a gentle flow, and removed. […] The curve was based on a two-fold dilution series of THP-1 cells (top standard 100,000 cells in 29 µl). […] The media was carefully aspirated from each well, and the converted dye was solubilized by 20 µl of DMSO.
Representative chemokines included […] ("CC"), MIP-1α and RANTES, and two alpha-chemokines ("CXC"), IL-8 and SDF-1α. Additionally, to determine the specificity ofpeptide 3(1-12)[MCP-1]
The number of pluses is a qualitative indicating of the activity of each peptide in each assay.

[2] = tested on: lung cells of normal mice; assay: Cell number and cell type in the lungs of normal mice; type: in vivo
Procedure: To determine whether increasing doses of CRD-Leu4Ile11Cys13 peptide 3(3-12)[MCP-1] alters the cell number and type of cell within the lungs of normal mice, mice were injected intravenously, intravenously and intratracheally, or intratracheally alone with CRD-Leu4Ile11Cys13 peptide 3(3-12)[MCP-1]. Mice were sacrificed at 20-24 hours post injection. Lungs were collected for isolation of cells, which were subsequently counted and characterized by surface staining for CD3, CD4, CD8, B220, and Mac-1.

[3] = tested on: gp120; details: ns = not significant; >100 = ED50 not determined
Procedure: Binding assays. Cells (either Jurkat T-cells or THP-1 cells) were grown in RPMI 1640 medium supplemented with 10% fetal calf serum, 2 mM glutamine, 20 µM β-mercaptoethanol, 100 U/ml penicillin and 100 µg/ml streptomycin and maintained between 2 × 10^5 and 1 × 10^6 cells/ml. Prior to performing a binding assay, cells were spun out (100 × g; 4 minutes) and washed 3 times in ice-cold PBS. A volume of cell suspension in PBS containing 10^6 cells (for Jurkat cells) or 4 × 10^5 cells (for THP-1 cells) was pipetted into each well of a V-bottom 96-well plate (Gibco BRL) and spun out (100 x g; 4 minutes). Triplicate wells were then resuspended in 100 µl binding medium (PBS pH 7.2 containing 0.1% fatty acid-free bovine serum albumin (BSA)) containing labeled peptide in the presence or absence of various concentrations of unlabeled peptide. The plate was then incubated on ice for 90 minutes. Cells were washed 3 times with 380 µl of ice-cold PBS, spinning out the cells each time (100 × g; 4 minutes), and resuspended in 100 µl binding medium containing streptavidin-peroxidase (Amersham International) at 1:1000 dilution. Cells were incubated for a further 15 minutes on ice to allow labeling of any bound biotinylated peptide, then washed 4 times as above. Cells were then incubated with 200 µl TMB substrate (K-Blue, Bionostics) for 20 minutes at room temperature, and the reaction stopped by addition of 50 µl 2 M HCl. The plate was spun (3,000 × g; 3 minutes) and 200 µl of the colored product was transferred to an empty 96-well ELISA plate and the absorbance at 450 nm determined. For each assay, the absorbance of a blank reaction (no peptide added) was subtracted from all readings before further analysis.
Binding experiments with labeled peptide 2 were performed with 10 nM labeled peptide in each reaction.

[4] = tested on: HIV; type: cell-based; details: ns = not significant

Compound: CC[C@@H](C)[C@H]1NC(=O)[C@@H](CCC(N)=O)NC(=O)[C@H](N)CSSC[C@H](C(N)=O)NC(=O)[C@@H](CC(C)C)NC(=O)[C@@H](CC(=O)O)NC(=O)[C@H]2CCCN2C(=O)[C@@H](CCCCN)NC(=O)[C@@H](CCC(N)=O)NC(=O)[C@@H](CCCCN)NC(=O)[C@@H](Cc2c[nH]c3ccccc23)NC1=O (H-[dC][dQ][dI][dW][dK][dQ][dK][dP][dD][dL][dC]-NH2; disulfide 1-11)
- effect on chemokine-induced THP-1 migration (in words) [1]: very similar ED50s
- Average ED50 ([1]; average inhibitory ED50 for THP-1 migration induced by each of the chemokines): 100 nM
- percentages of CD3, CD4, and B220 cells in lung of normal mice (in words) ([2]; high dose, all routes of administration): significantly reduced
- total number of cells isolated from the lungs of normal mice (in words) ([2]; low dose (0.3 µg IV and/or 10 µg IT) compared to PBS): higher

Compound: CC[C@H](C)[C@H](NC(=O)[C@H](C)NC(=O)[C@H](CC(=O)O)NC(=O)[C@@H]1CCCN1C(=O)[C@H](CCC(N)=O)NC(=O)[C@H](C)N)C(=O)N[C@@H](CC(N)=O)C(=O)N[C@@H](C)C(=O)N1CCC[C@H]1C(=O)N[C@H](C(=O)N[C@H](C(=O)N[C@@H](CS)C(=O)N[C@@H](CS)C(=O)O)[C@@H](C)O)C(C)C [Peptide 1] (H-AQPDAINAPVTCC-OH; N-terminus and C-terminus assumed)
- % inhibition at 100 µM of migration induced by any of the chemokines tested ([1]; 100 µM, CC and CXC chemokines): ≤ 20%
- effect on chemokine-induced THP-1 migration (in words) [1]: no significant effect

Compound: =cvaekpsksstirrysc= ([dC][dV][dA][dE][dK][dP][dS][dK][dS][dS][dT][dI][dR][dR][dY][dS][dC]; bridge 1-17 (inferred); not fully specified; printed as =cvaekpsksstirrysc=)
- gp120 ED-50 (µM) [3]: ns
- % virus inhibition [4]: ns

Compound: CSYRRITSSKSPKEAVC
- gp120 ED-50 [3]: >100 µM
- % virus inhibition [4]: ns
